Entries after “also recorded” stand apart in the source; their conditions may differ. Where a name gives a salt, the structure may show the parent alone.

Series [1] is described as follows: Hygroscopicity / moisture sorption isotherm of solid state forms. The format is physicochemical. The settings on record: for hygroscopicity: general statement on the solid state form. An excerpt:
FIG. 6A is a moisture sorption isotherm corresponding to the Amorphous Freebase (via dehydration).
FIG. 6C is a moisture sorption isotherm corresponding to the Tartrate Hydrate.
FIG. 6D is a moisture sorption isotherm corresponding to the Freebase Anhydrate Form D.
In one embodiment, the Tartrate Hydrate has a moisture sorption isotherm profile showing a weight gain of about 1% to about 2% when relative humidity is increased from about 10% relative humidity to about 90% relative humidity at a temperature of 25° C.

The nature of series [2]: Physical stability of solid state forms (dehydration, desolvation, conversion). The class given is physicochemical. The settings on record: for conversion upon drying: drying / ambient drying; for physical stability: general statement on the solid state form. The method, then:
The Tartrate Hydrate dehydrated into Amorphous at low relative humidity and high temperature, e.g., <10% RH at 25° C. Shearing and compression potentially cause conversion to the amorphous tartrate, and therefore it is not suitable for compressing into tablet form. Additionally, the filter cake solidified during drying, resulting in the need for additional controls during drying.
In addition, Freebase Hydrate Form C can be grown into different particle sizes.
Freebase Anhydrate Form D can be manufactured only when the water content of the crystallization solvent is low, and will convert to Freebase Hydrate Form C in solutions at high water content. The manufacture of Freebase Anhydrate Form D thus requires strict control of water content. Freebase Anhydrate Form D is slow to crystallize, and difficult to manufacture in higher yield. […] Freebase Hydrate Form C will convert to Freebase Anhydrate Form D in a solution of ethyl acetate with low water content.
The resulting amorphous hydrochloride is hygroscopic. Yields obtained for each of the crystalline hydrochlorides generally have been in the 10% to 15% range.

A short description of series [3]: Stability of isolated solid form at ambient conditions. The format is physicochemical. As to conditions: after isolation.
The nature of series [4]: Chemical stability of solid state forms in closed vials at controlled temperature and relative humidity. The format is physicochemical. The settings on record: general statement on the solid state form. The method, then:
The Amorphous Freebase, however, is hygroscopic and can comprise as much as 12% by weight water at 25° C./90% relative humidity. Environmental controls potentially are required to ensure appropriate control of potency and water content during storage, dispensing, and handling of the Amorphous Freebase.
The Tartrate Hydrate, however, potentially will convert to an amorphous tartrate below 10% relative humidity, when heated, or when compressed or under shear.

Series [5] is described as follows: Solid state accelerated stability study. The format is physicochemical. As to conditions: for chemical stability: solid state accelerated stability study. The method, then:
Samples (approximately 1 mg to 2 mg) of the solid state form were weighed into glass vials and tested as described below.

Series [6] in a line: Equilibrium solubility. The format is physicochemical.
Protocol: After equilibration, the mixtures were inspected to assure that the amount of excess solid was sufficient to permit re-characterization. […] The pH of aqueous suspensions was determined after equilibration. The solid phase was separated from the liquid phase by centrifugation at 3300 rpm at equilibration temperatures (i.e., 25° C. or 37° C.). The supernatant was then filtered (13 mm Acrodisc® syringe filter with 0.45μ GHP membrane, Pall® Life Sciences, Ann Arbor, Mich.) to discard the initial 2 mL (to saturate filter) and capture the last 1 mL for analysis. The filtrate was diluted as needed for quantification of the material studied by HPLC method (as detailed elsewhere herein). The physical form of the recovered solid was characterized by powder X-ray diffraction to examine whether or not phase change had occurred
Series [7] is described as follows: Moisture sorption isotherm. The format is physicochemical. The method, then:
Moisture vapor isotherm data were collected with a DVS Advantage (Surface Measurement Systems Ltd, Alperton, United Kingdom). The sample powder (5 mg to 20 mg) was loaded on a tared pan of the DVS Advantage. The moisture sorption isotherm data were collected from 30-0-90-0-30% relative humidity in 10% relative humidity intervals. For each step, the dm/dt criteria was 0.001% over 5 minutes, a minimum dm/dt time of 30 minutes, and a maximum dm/dt of 120 minutes. Data was collected isothermally at 25° C. with a nitrogen flow rate of 200 cm^3/minute. The post DVS sample was kept at approximately 30% relative humidity before PXRD analysis.

A short description of series [8]: Pharmacokinetic interaction of Compound 1 and methotrexate (dose-normalized AUC). The format is in vivo, human. As to conditions: FIG. 35B.
The nature of series [9]: Study 2-Part 2: methotrexate PK alone or with Compound 1 in subjects with RA. The class given is in vivo. The settings on record: human; for CL renal: urine and plasma.
Protocol: Subjects received study drug for 26 consecutive days (Study Days 3 through 28) and a single morning dose of study drug on Study Day 29. […] Subjects were confined to the study site for a total of 10 days—from Day 1 to Day 4 and from Day 27 to Day 31.
Samples quantified below the LLOQ were reported as zero.
Renal clearance (CLr) was calculated as Au,0-12/AUC0-12 at steady state.
In series [10] the test system is isolated Treg cells. The settings on record: isolated Treg cells and rheumatoid arthritis synovial fluid; cited from earlier work.

`CCC1CN(C(=O)NCC(F)(F)F)CC1c1cnc2cnc3[nH]ccc3n12.Cl` (stereo not drawn) [amorphous hydrochloride]: the hygroscopicity result in series [1] is “hygroscopic”.
For `CC[C@@H]1CN(C(=O)NCC(F)(F)F)C[C@@H]1c1cnc2cnc3[nH]ccc3n12` [Hydrochloride Solvate Form BB, (3S,4R)-3-ethyl-4-(3H-imidazo[1,2-a]pyrrolo[2,3-e]pyrazin-8-yl)-N-(2,2,2-trifluoroethyl)pyrrolidine-1-carboxamide], in series [2], the conversion upon drying entry is given as “convert to an amorphous hydrochloride upon ambient drying”.
Turning to `CC[C@@H]1CN(C(=O)NCC(F)(F)F)C[C@@H]1c1cnc2cnc3[nH]ccc3n12` [Freebase Hydrate Form B, (3S,4R)-3-ethyl-4-(3H-imidazo[1,2-a]pyrrolo[2,3-e]pyrazin-8-yl)-N-(2,2,2-trifluoroethyl)pyrrolidine-1-carboxamide], in series [2], the conversion upon drying entry is “convert to the Amorphous Freebase upon drying” and the physical stability result is listed as “not physically stable”. The “Stability at ambient conditions” value in series [3] is “not stable after isolation at ambient conditions and readily dehydrated to the Amorphous Freebase; also recorded: not stable at ambient conditions and readily dehydrates to the Amorphous Freebase”.
On to `CC[C@@H]1CN(C(=O)NCC(F)(F)F)C[C@@H]1c1cnc2cnc3[nH]ccc3n12` [L-Maleate Form BBB, (3S,4R)-3-ethyl-4-(3H-imidazo[1,2-a]pyrrolo[2,3-e]pyrazin-8-yl)-N-(2,2,2-trifluoroethyl)pyrrolidine-1-carboxamide], for which the chemical stability result in [4] was “less chemically stable”; in series [5] (listed as L-maleate salt), “prone to chemical degradation”. The Degradation on storage result in series [5] (50° C./75% relative humidity (open and closed glass vials)) is reported as “degraded to products that were not observed for the Freebase Hydrate Form C or the Tartrate Hydrate”.
`CC[C@@H]1CN(C(=O)NCC(F)(F)F)C[C@@H]1c1cnc2cnc3[nH]ccc3n12` [Freebase Hydrate Form C, (3S,4R)-3-ethyl-4-(3H-imidazo[1,2-a]pyrrolo[2,3-e]pyrazin-8-yl)-N-(2,2,2-trifluoroethyl)pyrrolidine-1-carboxamide]: the chemical stability result in [4] is “excellent chemical stability; also recorded: good chemical stability”; in series [5], “acceptable”. Besides, the hygroscopicity entry in series [1] is recorded as “low hygroscopicity”; in series [7] (moisture sorption isotherm analysis, 25° C.), “not hygroscopic”. In addition, the “temperature up to which no dehydration occurs” value in [2] (drying) was “around 110 °C”. Further, in [2], the physical stability result was “excellent and good”. In addition, the “stability under mechanical processing” value in series [2] (milling, compression) is on record as “stable under mechanical processing”. Besides, the Solubility – broadly, how much of the substance goes into solution per volume – in [6] (FasSIF (pH 6.5 at 37° C.)) is 0.22 mg/mL; in series [6] (pH 1 at 25° C.), 55.3 mg/mL. In [5] (80/75 10 days, 50/75 6 weeks, 40/75 and 30/65 24 weeks, 25/60 12 months (Temp ° C./% RH)), the “Growth of degradation products” value was “no growth of degradation products”. For the same molecule, the “Change in attributes evaluated (description, crystal form, assay, impurities and water content)” value in series [5] (storage conditions of the accelerated stability study) was “No material change”.
With `CC[C@@H]1CN(C(=O)NCC(F)(F)F)C[C@@H]1c1cnc2cnc3[nH]ccc3n12` [Hydrochloride Solvate Form CC, (3S,4R)-3-ethyl-4-(3H-imidazo[1,2-a]pyrrolo[2,3-e]pyrazin-8-yl)-N-(2,2,2-trifluoroethyl)pyrrolidine-1-carboxamide], the conversion upon drying result in [2] was “convert to an amorphous hydrochloride upon ambient drying”.
`CC[C@@H]1CN(C(=O)NCC(F)(F)F)C[C@@H]1c1cnc2cnc3[nH]ccc3n12` [L-Maleate Form AAA, (3S,4R)-3-ethyl-4-(3H-imidazo[1,2-a]pyrrolo[2,3-e]pyrazin-8-yl)-N-(2,2,2-trifluoroethyl)pyrrolidine-1-carboxamide]: in [4], the chemical stability result is on record as “less chemically stable”.
As to `CC[C@@H]1CN(C(=O)NCC(F)(F)F)C[C@@H]1c1cnc2cnc3[nH]ccc3n12` [Freebase Solvate Form A, (3S,4R)-3-ethyl-4-(3H-imidazo[1,2-a]pyrrolo[2,3-e]pyrazin-8-yl)-N-(2,2,2-trifluoroethyl)pyrrolidine-1-carboxamide], in [2], the conversion upon drying entry was “convert to the Amorphous Freebase upon drying” and the physical stability result is “not physically stable”. Further, the “Stability at ambient conditions” value in [3] is “not stable after isolation at ambient conditions and readily dehydrated to the Amorphous Freebase”.
In the case of `CC[C@@H]1CN(C(=O)NCC(F)(F)F)C[C@@H]1c1cnc2cnc3[nH]ccc3n12` [Hydrochloride Solvate Form AA, (3S,4R)-3-ethyl-4-(3H-imidazo[1,2-a]pyrrolo[2,3-e]pyrazin-8-yl)-N-(2,2,2-trifluoroethyl)pyrrolidine-1-carboxamide], the conversion upon drying entry in series [2] was “convert to an amorphous hydrochloride upon ambient drying”.
Take `CN(Cc1cnc2nc(N)nc(N)c2n1)c1ccc(C(=O)N[C@@H](CCC(=O)O)C(=O)O)cc1` [methotrexate]: the “effect of concomitant Compound 1 administration on methotrexate dose-normalized AUC” value in series [8] is given as “lack of effect”. Besides, the Tmax (in general, the time at which the peak concentration occurs) amounted to 2.5 h in series [9] (plasma, 6 mg, Compound 1 6 mg BID Group, Day 1 (alone)); 2.5 h in [9] (plasma, 12 mg, Compound 1 12 mg BID Group, Day 29 (with Compound 1)); 3 h in series [9] (plasma, 24 mg, Compound 1 24 mg BID Group, Day 1 (alone)); 2.5 h in [9] (plasma, 24 mg, Compound 1 24 mg BID Group, Day 29 (with Compound 1)). In series [9] (plasma, 6 mg, Compound 1 6 mg BID Group, Day 29 (with Compound 1), harmonic mean ± pseudo-SD, read-out: t1/2 (terminal elimination half-life) (converted)), the half-life was 4.7 ± 1.3 h. Moreover, the CL renal is 110 mL/min in [9] (6 mg, Compound 1 6 mg BID Group, Day 1 (alone)); 90.5 mL/min in series [9] (6 mg, Compound 1 6 mg BID Group, Day 29 (with Compound 1)); 102 mL/min in series [9] (12 mg, Compound 1 12 mg BID Group, Day 1 (alone)); 79.7 mL/min in series [9] (12 mg, Compound 1 12 mg BID Group, Day 29 (with Compound 1)); 124 mL/min in series [9] (24 mg, Compound 1 24 mg BID Group, Day 1 (alone)); 107 mL/min in [9] (24 mg, Compound 1 24 mg BID Group, Day 29 (with Compound 1)). Moreover, the CL renal in series [9] (Placebo group, Day 1) is 72 mL/min; in series [9] (Placebo group, Day 29) it was 96.7 mL/min.
On to `CC[C@@H]1CN(C(=O)NCC(F)(F)F)C[C@@H]1c1cnc2cnc3[nH]ccc3n12` [Freebase Anhydrate Form D, (3S,4R)-3-ethyl-4-(3H-imidazo[1,2-a]pyrrolo[2,3-e]pyrazin-8-yl)-N-(2,2,2-trifluoroethyl)pyrrolidine-1-carboxamide], for which the “water uptake (reversibly hygroscopic)” value in [1] (90% RH at 25° C.) is listed as “up to 1.8%”. Also, the hygroscopicity entry in series [1] is “reversibly hygroscopic”. Also, the “Moisture sorption (reversibly sorbs up to)” value in series [7] (90% relative humidity at 25° C.) is on record as “up to 1.8%”.

B1: BT-061: humanized agonistic monoclonal antibody that binds to a unique epitope of human CD4 (antibody, chains of the INN, looked up, V domains shown)
VH: EEQLVESGGGLVKPGGSLRLSCAASGFSFSDCRMYWLRQAPGKGLEWIGVISVKSENYGANYAESVRGRFTISRDDSKNTVYLQMNSLKTEDTAVYYCSASYYRYDVGAWFAYWGQGTLVTVSS
VL: DIVMTQSPDSLAVSLGERATINCRASKSVSTSGYSYIYWYQQKPGQPPKLLIYLASILESGVPDRFSGSGSGTDFTLTISSLQAEDVAVYYCQHSRELPWTFGQGTKVEIK
Take B1: in series [10], the “CD4+ and CD8+ T effector cell proliferation” value was “suppression”; the “expression of pro-inflammatory cytokines” value is recorded as “reduction”; the “production of the anti-inflammatory cytokine TGFβ” value is “increase”.

The values above are taken from patent US10730883B2 (AbbVie Inc., priority 2015, dated 2020).
